Experimental data taken from PubChem BioAssay AID1605 (NINDS Approved Drug Screening Program, 2009).
pEC50: −log10 of the molar value.

Tested on: Cells expressing FALS mutant SOD1, cell death protection
Experiment: cytoprotection in mutant SOD1 ALS cell model – familial ALS SOD1 mutant (AID 1605)

SMILES | pEC50
CCC1(c2ccccc2)C(=O)NCNC1=O | 3.13
CN1C(=O)CN=C(c2ccccc2)c2cc(Cl)ccc21 | 3.93
CN[C@@H]1[C@H](O)[C@H](NC)[C@H]2O[C@@]3(O)C(=O)C[C@@H](C)O[C@H]3OC2[C@H]1O (some centres not stated) | 7.65
C[C@H]1C(=O)O[C@@H]2CCN3CC=C(COC(=O)[C@](C)(O)[C@]1(C)O)[C@H]23 | 3.62
O=C1O[C@@H](CO)[C@H](O)[C@@H](O)[C@@H]1O | 5.03
COC(=O)C1=C(C)NC(C)=C(C(=O)OC)C1c1ccccc1[N+](=O)[O-] | 4.54
COc1cc(C)c2c(=O)cc(-c3ccccc3)oc2c1 | 4.34
CN1CC[C@]23c4c5ccc(O)c4O[C@H]2C(=O)CCC3[C@H]1C5 (some centres not stated) | 2.47
Cc1ccc(C(=O)C(C)CN2CCCCC2)cc1 (configuration not stated) | 4.72
Cc1cc(C2CCCCC2)n(O)c(=O)c1 | 4.51
O=c1cc(-c2ccccc2)oc2cc(O)cc(O)c12 | 5.19
CCn1cc(C(=O)O)c(=O)c2cc3c(cc21)OCO3 | 5.62
NCCC(O)C(=O)N[C@@H]1C[C@H](N)[C@@H](O[C@H]2O[C@H](CN)[C@@H](O)[C@H](O)[C@H]2N)[C@H](OC2O[C@H](CO)[C@H](O)[C@H]2O)[C@H]1O (some centres not stated) | 6.70
O=C(O)CCC(=O)OC[C@@H](NC(=O)C(Cl)Cl)[C@H](O)c1ccc([N+](=O)[O-])cc1 | 5.96
CC(CCc1ccccc1)NC(C)C(O)c1ccc(O)cc1 (configuration not stated) | 4.11
CCCC(=O)Nc1ccc(OCC(O)CNC(C)C)c(C(C)=O)c1 (configuration not stated) | 4.31
CC[C@@H](CO)NC(=O)[C@@H]1C=C2c3cccc4[nH]cc(c34)C[C@H]2N(C)C1 | 2.54
NC(=O)NC1NC(=O)NC1=O (configuration not stated) | 7.65
COC(=O)/C(=C1\OC(=O)C(c2ccccc2)C1=O)c1ccccc1 (configuration not stated) | 2.40

SMILES | pEC50
CCCC(C)C1(CC)C(=O)N=C(S)NC1=O (configuration not stated) | 4.52
CN(C)/N=N/c1nc[nH]c1C(N)=O | 4.09
C1CNCCN1 | 2.15
CC(NC(=O)C(NC(=O)OCc1ccccc1)C(C)C)C(=O)NC(CC(=O)O)C(=O)OC(F)F (configuration not stated) | 3.04
NCC(CC(=O)O)c1ccc(Cl)cc1 (configuration not stated) | 6.42
Oc1cc(O)c2c(c1)O[C@H](c1ccc(O)c(O)c1)[C@@H](O)C2 | 4.14
O=[N+]([O-])c1cc([As](=O)(O)O)ccc1O | 4.14
O=C(OCC(O)CO)c1ccccc1Nc1ccnc2cc(Cl)ccc12 (configuration not stated) | 2.49
COc1ccc2[nH]cc(CCNC(C)=O)c2c1 | 3.75
CCC(=O)c1c(O)cc(O)cc1O | 3.80
CN(C)c1ccc(O)c2c1C[C@H]1C[C@H]3[C@H](N(C)C)C(=O)C(C(N)=O)=C(O)[C@@]3(O)C(=O)C1=C2O | 4.84
CC/C(=C(/CC)c1ccc(O)cc1)c1ccc(O)cc1 | 7.49
CC(C)CC1NC(=O)CNC1=O (configuration not stated) | 7.65
C[C@]12C=CC(=O)C=C1CCC1C2C(=O)C[C@@]2(C)C1CC[C@]2(O)C(=O)CO (some centres not stated) | 2.58
Nc1nc2ncc(CNc3ccc(C(=O)N[C@@H](CCC(=O)O)C(=O)O)cc3)nc2c(=O)[nH]1 | 3.11
CC(N)Cc1ccc2c(c1)OCO2 (configuration not stated) | 2.67
CC[C@@H]1C(=O)OC[C@@H]1Cc1cncn1C | 2.51
NC[C@H]1O[C@H](O[C@H]2C(O[C@@H]3O[C@H](CO)[C@@H](O)[C@H]3O)[C@@H](O)[C@H](N)C[C@@H]2N)[C@H](N)[C@@H](O)[C@@H]1O (some centres not stated) | 2.24
